In the Kinase Knowledgebase extract (Sharma et al. 2016):

target: EGFR (mouse) (UniProt P00533); settings: nih3t3 fibroblast

| Compound | IC50 |
| --- | --- |
| COc1cccc(-c2ccc3c(c2)NC(=O)/C3=C\c2[nH]c(C)c(CCC(=O)O)c2C)c1 | 24.1 µM |
| Cc1[nH]c(/C=C2\C(=O)Nc3ccc(Br)cc32)c(C)c1CCC(=O)O | > 50 µM |
| Cc1[nH]c(/C=C2\C(=O)Nc3ccc(C(=O)O)cc32)c(C)c1CCC(=O)O | > 50 µM |
| Cc1c(CCC(=O)O)c[nH]c1/C=C1\C(=O)Nc2ccc(S(N)(=O)=O)cc21 | > 50 µM |
| COc1ccc2c(c1)NC(=O)/C2=C\c1[nH]cc(CCC(=O)O)c1C | > 50 µM |
| COc1cccc(-c2ccc3c(c2)NC(=O)/C3=C\c2[nH]cc(C)c2CCC(=O)O)c1 | 49.2 µM |
| COc1ccccc1-c1ccc2c(c1)NC(=O)/C2=C\c1[nH]cc(CCC(=O)O)c1C | 19.2 µM |
| Cc1c(CCC(=O)O)c[nH]c1/C=C1\C(=O)Nc2ccccc21 | > 50 µM |
| COc1ccc2c(c1)NC(=O)/C2=C\c1[nH]c(C)c(CCC(=O)O)c1C | > 50 µM |
| Cc1c(CCC(=O)O)c[nH]c1/C=C1\C(=O)Nc2cc(-c3ccccc3)ccc21 | 21.8 µM |
| Cc1c[nH]c(/C=C2\C(=O)Nc3ccc(Br)cc32)c1CCC(=O)O | > 50 µM |
| Cc1c[nH]c(/C=C2\C(=O)Nc3cccc(C)c32)c1CCC(=O)O | 28.8 µM |
| Cc1c(CCC(=O)O)c[nH]c1/C=C1\C(=O)Nc2ccc(C(=O)O)cc21 | > 50 µM |
| Cc1c[nH]c(/C=C2\C(=O)Nc3ccccc32)c1CCC(=O)O | > 50 µM |
| CCOc1cccc(-c2ccc3c(c2)NC(=O)/C3=C\c2[nH]cc(C)c2CCC(=O)O)c1 | > 50 µM |
| Cc1[nH]c(/C=C2\C(=O)Nc3cc(-c4ccccc4)ccc32)c(C)c1CCC(=O)O | 21.9 µM |
